What all share (format): in vivo, human
The nature of data set [1]: Ketoconazole PK after a 400 mg single dose on Day 8 of mifepristone 300 or 600 mg OD (Example 2). The source says:
(§1) Subjects were discharged on Day 11.
(§2) Subjects were discharged on Day 11. Subjects in both cohorts returned to study center on Day 13 for safety monitoring, collection of the 120-hour PK draw, and completion of the Termination Visit procedures, followed by discharge from the study. To the extent possible, any adverse events deemed study drug-related and that were ongoing at the time of discharge from the study were followed-up to resolution or until a determination was made that the unresolved event was stable.
(§3) DURATION OF TREATMENT: Up to a total of 28 days, including up to 2 weeks screening, dosing on Days 1-8, safety observation, and PK sample collection through Day 13.
(§4) Descriptive statistics count, mean, median, standard deviation, minimum, maximum, and % coefficient of variation) were provided. Ketoconazole concentrations were listed and summarized. GM means of Cmax and total AUC were compared for the single dose in this study to the combined data of reported 400 mg single doses of ketoconazole of healthy subjects from the literature.

Data set [2] in a line: Effect of co-administration with mifepristone on ketoconazole PK (Example 3). To be noted: Test: Day 17, 600 mg mifepristone OD + 200 mg ketoconazole BID; Reference: Day -1, 200 mg ketoconazole single dose. As to the method:
(§5) A single dose of ketoconazole was administered on Day −1.
(§6) The study was a two period study design.

The nature of data set [3]: Safety assessment: adverse events, laboratory tests, ECG (Example 1). The conditions noted are these: Example 1. As to the method: Subjects in both cohorts returned to the study center on Day 15 for safety monitoring, and completion of the Termination Visit procedures, followed by discharge from the study. Safety was assessed by spontaneously reported adverse events, physical examinations, and routine clinical laboratory tests. To the extent possible, any adverse events deemed study drug-related and that were ongoing at the time of discharge from the study were followed-up to resolution or until a determination is made that the unresolved event was stable.

Data set [4] can be described thus: Effect of ketoconazole 200 mg BID on PK of mifepristone 600 mg OD and metabolites, with food (Example 3). The conditions noted are these: for concentrations on Day 17 compared with Day 12: Day 17: mifepristone 600 mg daily + ketoconazole 200 mg twice daily, Day 12: mifepristone alone; for Ratio % Test/Reference, AUC0-24 (geometric mean ratio) / Ratio % Test/Reference, Cmax (geometric mean ratio): Test: Day 17, 600 mg mifepristone OD + 200 mg ketoconazole BID, Reference: Day 12, 600 mg mifepristone OD; for effect of co-administration with ketoconazole on exposure: mifepristone 600 mg OD + ketoconazole 200 mg BID. The protocol:
as §5, §6

A short description of data set [5]: Cross-study comparison of exposure to mifepristone and metabolites with historic 1200 mg OD mifepristone study (Example 3). To be noted: Test: present study Day 17, 600 mg mifepristone OD + 200 mg ketoconazole BID; Reference: historic study Day 7, 1200 mg mifepristone OD alone; after 34% fat meal.
Data set [6] can be described thus: Effect of a 400 mg single dose of ketoconazole on PK of an 8-day regimen of 300 mg or 600 mg OD mifepristone, moderate fat breakfast (Example 2). To be noted: mifepristone 300 or 600 mg OD. The protocol: This was an open-label study in healthy male subjects. […] The 400 mg single dose of ketoconazole was given to all subjects on day 8.
METHODOLOGY: Twelve subjects were enrolled, six in Cohort 1 and 6 in Cohort 2.
as §1, §2
DIAGNOSIS AND MAIN […] FOR INCLUSION: Healthy male volunteers between the ages of 18 to 45 years of age with a body mass index (BMI) ranging between 19 and 32 kg/m2 and a weight of at least 60 kg (132 lbs) were enrolled. Subjects had no clinically significant abnormal findings on the physical examination, ECG, blood pressure, heart rate, medical history, or clinical laboratory results during screening. The QTc interval at screening was less than 450 msec.
as §3, §4

Where [7] appears, read: single 400 mg ketoconazole dose on Day 8.

SMILES strings stand for the structures. Entries after “also recorded” stand apart in the source; their conditions may differ.

As to `CC(=O)N1CCN(c2ccc(OCC3COC(Cn4ccnc4)(c4ccc(Cl)cc4Cl)O3)cc2)CC1` (centres unmarked) [Ketoconazole, 1-acetyl-4-[4-[[2-(2,4-dichlorophenyl)-2-[(1H-imidazol-1-yl)-methyl]-1,3-dioxolan-4-yl]methoxy]phenyl]piperazine], the “ketoconazole half-life on either mifepristone regimen” value in data set [1] (single 400 mg dose on Day 8, mifepristone 300 vs 600 mg OD) is listed as “not appreciably different”. In data set [1] (setting [7]), the “ketoconazole AUCinf higher on 600 mg OD relative to 300 mg OD mifepristone regimen” value is on record as 36% and the “ketoconazole Cmax higher on 600 mg OD relative to 300 mg OD mifepristone regimen” value was 37%. For the same compound, in data set [2], the “Ratio % Test/Reference, AUC (geometric mean ratio)” value stood at 365.36% and the “Ratio % Test/Reference, Cmax (geometric mean ratio)” value (“Ratio % Test/Reference, Cmax” below) is listed as 252.71%. Further, in data set [3], the “TEAEs considered by the investigator to be related to the drug” value is recorded as “One TEAE of insomnia”.
As to `CC#C[C@]1(O)CC[C@H]2[C@@H]3CCC4=CC(=O)CCC4=C3[C@@H](c3ccc(NC)cc3)C[C@@]21C` [RU 42633, (8S,11R,13S,14S,17S)-17-hydroxy-13-methyl-11-[4-(methylamino)phenyl]-17-prop-1-ynyl-1,2,6,7,8,11,12,14,15,16-decahydrocyclopenta[a]phenanthren-3-one], in data set [4], the “concentrations on Day 17 compared with Day 12” value is recorded as “similar”; the “Ratio % Test/Reference, AUC0-24 (geometric mean ratio)” value stood at 102.33%; the “Ratio % Test/Reference, Cmax” value is reported as 105.73%; the “effect of co-administration with ketoconazole on exposure” value (from here on “effect of co-administration”) is on record as “not affected by ketoconazole; also recorded: little change in exposure”. Further, in data set [5], the “Ratio % Test/Ref, AUC0-24 (geometric mean ratio)” value amounted to 91.34% and the “Ratio % Test/Ref, Cmax (geometric mean ratio)” value (“Ratio % Test/Ref, Cmax” below) is on record as 96.31%.
On to `CN(C)c1ccc([C@H]2C[C@@]3(C)[C@@H](CC[C@@]3(O)C#CCO)[C@@H]3CCC4=CC(=O)CCC4=C32)cc1` [RU 42698, (8S,11R,13S,14S,17S)-11-[4-(dimethylamino)phenyl]-17-hydroxy-17-(3-hydroxyprop-1-ynyl)-13-methyl-1,2,6,7,8,11,12,14,15,16-decahydrocyclopenta[a]phenanthren-3-one], for which, in data set [4], the “concentrations on Day 17 compared with Day 12” value is given as “higher”; the “Ratio % Test/Reference, AUC0-24 (geometric mean ratio)” value turned out to be 166.86%; the “Ratio % Test/Reference, Cmax” value turned out to be 169.13%; the “effect of co-administration” value is on record as “increased by ketoconazole”. For the same compound, in data set [4] (co-administration with ketoconazole 200 mg BID, mifepristone 600 mg OD), the “mean increase in exposure” value is reported as “approximately 70%”. For the same compound, in data set [5], the “Ratio % Test/Ref, AUC0-24 (geometric mean ratio)” value stood at 118.18% and the “Ratio % Test/Ref, Cmax” value is 116.55%. Moreover, in data set [6], the “mean metabolite exposure compared with mifepristone” value is given as “lower”.
On to `CC#C[C@]1(O)CC[C@H]2[C@@H]3CCC4=CC(=O)CCC4=C3[C@@H](c3ccc(N)cc3)C[C@@]21C` [RU 42848, (8S,11R,13S,14S,17S)-11-(4-aminophenyl)-17-hydroxy-13-methyl-17-prop-1-ynyl-1,2,6,7,8,11,12,14,15,16-decahydrocyclopenta[a]phenanthren-3-one], for which, in data set [4], the “concentrations on Day 17 compared with Day 12” value is recorded as “similar”; the “Ratio % Test/Reference, AUC0-24 (geometric mean ratio)” value is reported as 94.88%; the “Ratio % Test/Reference, Cmax” value was 95.48%; the “effect of co-administration” value is on record as “not affected by ketoconazole; also recorded: little change in exposure”. Besides, in data set [5], the “Ratio % Test/Ref, AUC0-24 (geometric mean ratio)” value turned out to be 81.43% and the “Ratio % Test/Ref, Cmax” value is on record as 82.45%.

Source of the values: patent US10842800B2, “Concomitant administration of glucocorticoid receptor modulators and CYP3A inhibitors” (Corcept Therapeutics, Inc., priority 2017, dated 2020).
